Source: patent US9216215B2, “Adjuvant system for vaccine adjuvant” (VAXFORM LLC, priority 2010, dated 2015)

Tests used:
[1] = Linkage of CTL receptor agonist to aluminum adjuvant (FIG. 2); assay type: physicochemical; details: aluminum oxyhydroxide
Text: However, monosaccharides can be modified by a chemical group including but not limited to fluoride, phosphate, sulfate, or carbonate group which permits a ligand exchange linkage of the molecule to the aluminum-containing adjuvant. Method for modifying saccharides by addition of fluoride, phosphate, sulfate, or carbonate groups is well known in the art (Cantos, et al. Biochem. J. (1993) 289: 155-160; Carbohydrate Chemistry, Royal Society of Chemistry, Ed. R D Guthrie (1968)). This is illustrated in FIG. 2 utilizing mannose as the CTL receptor agonist and aluminum oxyhydroxide. […] However, addition of a phosphate group at the 1 position of mannose (MIP) results in approximately 100% linkage of the CTL agonist to the aluminum adjuvant.
Another method to the increased avidity of the saccharide for the aluminum adjuvant particle is polymerization. For instance the avidity of the saccharide for the aluminum adjuvant particle may be increased by increasing the size of the saccharide by polymerization to produce a polysaccharide. The increase avidity for the aluminum adjuvant is due to the larger number of interactions of a polysaccharide as compared to a monosaccharide to allow for the stable linkage of the polysaccharide agonist to the aluminum adjuvant particle. […]

[2] = Stability of CTL agonist linkage to aluminum oxyhydroxide on exposure to phosphate (FIG. 3A, 3B); assay type: physicochemical; details: 50 mM phosphate pH 7.4 for 30 minutes, absence of antigen
Text: It is important to maintain the stability of the CTL agonist linkage to the aluminum particle upon exposure to body fluid following administration. Components of interstitial fluid such as phosphate, citrate, and protein have the potential to remove the linkage of the CTL agonist with aluminum-containing adjuvants. The resulting soluble CTL agonist may adversely impact the immune response. FIG. 3A illustrates that MIP as well as mannan maintain approximately 100% linkage with aluminum oxyhydroxide when exposed to 50 mM phosphate pH 7.4 for 30 minutes in the absence of antigen.

Compound: O=P(O)(O)OC1O[C@H](CO)[C@@H](O)[C@H](O)[C@@H]1O (stereo partly shown) [MIP, Mannose-1-phosphate]
- linkage of the CTL agonist to the aluminum adjuvant [1]: approximately 100%
- linkage with aluminum oxyhydroxide maintained [2]: approximately 100%

Compound: mannan
- linkage of the CTL agonist to the aluminum adjuvant [1]: approximately 100%
- linkage with aluminum oxyhydroxide maintained [2]: approximately 100%
